{"source": "patent US20250223560A1", "about": "“NOX4 INHIBITOR COMPOSITIONS AND METHODS FOR REGENERATION OF DYSTROPHIC MUSCLE” (FULCRUM THERAPEUTICS, INC., priority 2022, published 2025)", "system": "D2.mdx mice", "assay": "Seven-day GKT831 treatment of six-month-old D2.mdx mice (apoptosis, gene expression)", "type": "in vivo, mouse", "details": "gastrocnemius, 60 mg/kg, seven days, vs vehicle", "method": "Mice were housed 3-5 mice per cage, randomly assigned into groups, provided ad libitum access to food (NIH-31 Open formulation diet; Envigo #7917), water, and enrichment, and maintained on a 12-hour light/dark system. Once daily (Q.D.) GKT831 (purchased from Ambeed, Inc.) was administered orally (P.O.) suspended at a concentration of 36 mg/mL in a vehicle consisting of sterilized sunflower seed oil (Sigma-Aldrich). […] The GKT831 treatment group received a dose of 60 mg/kg (21). All animal procedures were approved and conducted in accordance with the University of Florida IACUC and reported using the recommendations of ARRIVE guidelines.\nOCT-embedded murine tissues were cryo-sectioned at […] and fixed in 4% PFA. Immunofluorescent analysis was performed using anti-NOX4 (1:2000; Abcam #13303), anti-laminin (1:800; Novus #MAB2549), anti-vimentin (1:1000; Novus #MB300), anti-PDGFRα (1:500; R&D Systems #AF1062), anti-SMA (1:1000; Abcam #ab5694), anti-periostin (1:500, Abcam #ab14041), anti-Pax7 (1:100; R&D Systems #MAB1675), anti-Myosin X (1:800; Sigma #HPA024223) and anti-active caspase-3 (1:1000; Cell Signaling 49661) primary antibodies. Mouse tissue sections incubated with mouse monoclonal antibodies were first incubated with a solution containing donkey anti-mouse IgG AffiniPure Fab fragments (1:25 in PBS; Jackson ImmunoResearch #715-007-003) for one hour prior to blocking. Following overnight incubation in primary antibody, sections were rinsed with PBS and incubated with the appropriate species-specific secondary antibody (1:500 dilution). Lipofuscin-dependent autofluorescence was quenched using a 0.1% solution of Sudan black B following secondary antibody incubation. Slides were cover-slipped using Prolong Gold mounting reagent (Invitrogen). Images were acquired using a Leica SP8 confocal microscope. All comparative images were stained simultaneously and acquired using identical settings. Human samples were obtained through the National Disease Research Interchange (Philadelphia, PA).\nGene expression analysis was conducted as previously described (17) using the following mouse-specific primers: Col1a2 (forward) 5′-ATGGTGGCAGCCAGTTTGAA-3′ (SEQ ID NO: 1) and (reverse) 5′-TCCAGGTACGCAATGCTGTT-3′ (SEQ ID NO: 2); Acta2 (forward) 5′-CTACTGCCGAGCGTGAGATTGTCC-3′ (SEQ ID NO: 3) and (reverse) 5′-GAGGGCCCAGCTTCGTCGTATT-3′ (SEQ ID NO: 4); 116 (forward) 5′-AACCACGGCCTTCCCTACTTC-3′ (SEQ ID NO: 5) and (reverse) 5′-TCTGGCTTTGTCTTTCTTGTTATC-3′ (SEQ ID NO: 6); Tgfb1 (forward) 5′-GACTCTCCACCTGCAAGACCAT-3′ (SEQ ID NO: 7) and (reverse) 5′-GGGACTGGCGAGCCTTAGTT-3′ (SEQ ID NO: 8); Gapdh (forward) 5′-AGCAGGCATCTGAGGGCCCA-3′ (SEQ ID NO: 9) and (reverse) 5′-TGTTGGGGGCCGAGTTGGGA-3′ (SEQ ID NO: 10). Relative gene expression quantification was performed using the ΔΔCt method with Gapdh as the normalization gene.\nBecause the presumed mechanism attributed to myofibroblast clearance has been that of promoting their apoptosis (20), a short-term study was performed to investigate acute changes in muscle that result from NOX4 inhibition."}
{"smiles": "CN(C)c1cccc(-c2c3c(=O)n(-c4ccccc4Cl)[nH]c3cc(=O)n2C)c1", "note": "[FTX1620, Setanaxib]", "values": [{"measurement": "PDGFRα+ cells positive for active Caspase-3", "value": "significantly more"}, {"measurement": "Acta2 expression", "setting": "real-time PCR", "value": "decreased expression"}, {"measurement": "Col1a2 expression", "setting": "real-time PCR", "value": "decreased expression"}, {"measurement": "Il6 expression", "setting": "real-time PCR", "value": "decreased expression"}, {"measurement": "Tgfb1 expression", "setting": "real-time PCR", "value": "decreased expression"}]}
